Measured values published in PubChem BioAssay (NCI).
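Exposure lasted 48 hours, with cells grown in 96-well plates and compounds tested at five concentrations. GI50 is the concentration that inhibits growth by half. TGI is the concentration that stops growth completely.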

Tests used:
Experiment in all cases: NCI tumour cell line growth inhibition, 48 h
SR leukemia = tested on: SR leukemia
TK-10 renal = tested on: TK-10 renal
ACHN renal = tested on: ACHN renal
A549 NSCLC = tested on: A549 NSCLC
CAKI-1 renal = tested on: CAKI-1 renal
BT-549 breast = tested on: BT-549 breast
SK-MEL-5 melanoma = tested on: SK-MEL-5 melanoma
SF-295 CNS = tested on: SF-295 CNS
SW-620 colon = tested on: SW-620 colon
SN12C renal = tested on: SN12C renal

SMILES	TGI (SR leukemia) [µM]	TGI (TK-10 renal) [µM]	TGI (ACHN renal) [µM]	TGI (A549 NSCLC) [µM]	TGI (CAKI-1 renal) [µM]	TGI (BT-549 breast) [µM]	TGI (SK-MEL-5 melanoma) [µM]	TGI (SF-295 CNS) [µM]	TGI (SW-620 colon) [µM]	TGI (SN12C renal) [µM]	GI50 (SN12C renal) [µM]	GI50 (SR leukemia) [µM]	GI50 (TK-10 renal) [µM]	GI50 (A549 NSCLC) [µM]	GI50 (CAKI-1 renal) [µM]	GI50 (BT-549 breast) [µM]	GI50 (SK-MEL-5 melanoma) [µM]	GI50 (SF-295 CNS) [µM]	GI50 (SW-620 colon) [µM]
CC1=NN(c2cccc(Cl)c2)C2(SCC(=O)N2c2nc3ccccc3s2)/C1=C\c1cccs1 (configuration not stated)	30.1	80.6	> 100	92.8	99	37.1	36.7	78.3	> 100	–	–	–	–	–	–	–	–	–	–
CCn1c(-c2ccc(N=NNc3ccc(-c4n[nH]c(=S)n4CC)cc3)cc2)n[nH]c1=S	> 100	> 100	6.1	> 100	–	5.73	3.48	7.1	> 100	> 100	–	–	–	–	–	–	–	–	–
O=C(O)C1C2CCC(O2)C1C(=O)Nc1cccc2cccnc12 (configuration not stated)	> 100	> 100	> 100	> 100	> 100	> 100	–	> 100	> 100	> 100	–	–	–	–	–	–	–	–	–
NCCCCc1cc(O)c2c(c1O)C(=O)c1ccccc1C2=O	19.8	34	25.4	16.9	27.2	49.9	28.3	28.6	> 44.2	23	–	–	–	–	–	–	–	–	–
CC1=CC(=O)c2ccccc2C1=O	> 29	34.1	13.1	40.2	29.7	25.6	5.92	30.3	4.82	25	–	–	–	–	–	–	–	–	–
COc1cc2c(ccc3c4cc(OC)c(OC)cc4c[n+](C)c23)cc1O	–	–	–	> 75	> 75	–	52.7	54.9	> 47.3	22.1	–	–	–	–	–	–	–	–	–
O=C(OCN1C(=O)C2C3C=CC(C2C1=O)C1C2C(=O)N(COC(=O)C4CCCN4)C(=O)C2C31)C1CCCN1 (configuration not stated)	26.4	> 100	> 83.4	> 100	> 100	–	> 100	> 100	> 72.2	> 100	–	–	–	–	–	–	–	–	–
C[C@H](CCC(=O)O)[C@H]1CC[C@@]2(C)[C@@H]3C(=O)C[C@H]4C(C)(C)[C@@H](O)CC[C@]4(C)[C@H]3C(=O)C[C@]12C	> 100	> 100	> 100	> 100	> 100	> 100	> 100	> 100	> 100	> 100	–	–	–	–	–	–	–	–	–
CCN(CC(=O)O)C(=O)c1cccnc1	> 100	> 100	> 100	> 100	> 100	> 100	–	> 100	> 100	> 100	–	–	–	–	–	–	–	–	–
Fc1ccc(C(OCCN2CCC3CCC(C2)N3C/C=C/c2ccco2)c2ccc(F)cc2)cc1 (configuration not stated)	42.7	21.5	25.3	29.5	27.9	25.7	14.4	27.7	21.6	24.8	–	–	–	–	–	–	–	–	–
O=c1[nH]nc(NNc2ccccc2)c2nnn(C3CCCCC3)c12	> 100	> 100	> 100	> 100	> 100	> 100	> 100	> 100	–	> 100	–	–	–	–	–	–	–	–	–
CCCNC(=O)CCC(C)C1CCC2C3C(C[C@H](OC(C)=O)[C@]12C)[C@@]1(C)CCC2(C[C@H]1C[C@H]3OC(C)=O)OOC1(CC[C@]3(C)C4C[C@H](OC(C)=O)[C@]5(C)C(C(C)CCC(=O)NCCC)CCC5C4[C@H](OC(C)=O)C[C@@H]3C1)OO2 (some centres not stated)	> 100	> 100	> 82.2	> 100	> 100	> 100	> 100	> 100	> 100	> 100	–	–	–	–	–	–	–	–	–
COc1ccc(C(=O)/C=C/c2cccc([N+](=O)[O-])c2)c(OC)c1	4.02	> 50	–	> 50	> 50	2.99	> 50	> 50	2.54	2.99	1.18	0.678	1.59	2.56	1.98	1.12	2.37	2.39	1.2
Cc1nn(-c2ccccc2)c(C)c1/C=N/N=C1\SCC(=O)N1c1ccccc1	> 100	93.4	34.4	99.6	44.9	43	30.3	53.5	> 100	> 100	–	–	–	–	–	–	–	–	–
Clc1cc2c(cc1Cl)CC(NCCN1CCCC1)CC2 (configuration not stated)	38	27.6	31.8	29.4	30.2	28.8	14.7	29.8	45.7	31.4	–	–	–	–	–	–	–	–	–
C(=N\NC1=NCCN1)/c1ccc(-c2cn3cc(/C=N/NC4=NCCN4)ccc3n2)cc1	13.5	56.1	> 100	38.1	49.4	52.9	> 100	> 70.1	> 100	> 63.1	–	–	–	–	–	–	–	–	–
O=C(/C=C/c1ccccc1)NNC(=O)c1c(Cl)c(Cl)c(Cl)c(Cl)c1-c1nc2ccccc2[nH]1	> 100	–	> 100	67.7	> 100	76.1	62.4	> 100	> 100	63.4	–	–	–	–	–	–	–	–	–
